Reference: US12083094B2, “Cannabinoid composition and methods of treatment using the same” (CANNPAL ANIMAL THERAPEUTICS LIMITED, priority 2018, dated 2024)

Assay: Blood sampling for THC and CBD plasma concentration after single oral dosing
Details: for concentration at 0 h / concentration at 1 h / concentration at 1.5 h / concentration at 2 h / concentration at 3 h / concentration at 4 h / concentration at 12 h / concentration at 16 h / concentration at 24 h / concentration at 72 h / concentration at 0.67 h / concentration at 6 h / concentration at 8 h / concentration at 32 h / concentration at 48 h: oral, THC level in blood plasma fraction; for AUC: AUC for THC concentration, canine
Protocol: Two compositions, IVP1 and IVP2, were administered in varying amounts in the study.
Dosage volumes were calculated prior to Day 0, to provide the target dosage in mg/kg bodyweight based on actual dog bodyweights and IVP active ingredient composition based on the Certificates of Analysis.
Blood samples of approximately 5 mL were collected at each drug concentration sampling time-point from each animal using 22-gauge needles and 5 mL syringes.
The data points from Table 4 and Table 5 were also plotted and these graphs are set out in FIGS. 1-16.

[1] = dog, plasma, individual dogs 1-4, 0.24 mg/kg THC + 0.12 mg/kg CBD oral once
[2] = dog, plasma, individual dogs 5-8, 0.12 mg/kg THC + 0.24 mg/kg CBD oral once
[3] = dog, plasma, mean of dogs 1-4, 0.24 mg/kg THC + 0.12 mg/kg CBD oral once
[4] = dog, plasma, mean of dogs 5-8, 0.12 mg/kg THC + 0.24 mg/kg CBD oral once

For `CCCCCc1cc(O)c2c(c1)OC(C)(C)[C@@H]1CCC(C)=C[C@@H]21` [THC, Δ^9-Tetrahydrocannabinol], the “THC in the subject's blood” value (72 h after administration) was “detectable”, the concentration at 0 h [1] was 0 ng/mL and the concentration at 1 h [1] was 45.2 ng/mL. The concentration at 1.5 h [1] was 30.1 ng/mL, the concentration at 2 h [1] was 25.6 ng/mL and the concentration at 0 h [2] was 0 ng/mL. For the same compound, the concentration at 2 h [2] was 22.3 ng/mL, the concentration at 3 h [2] was 8.19 ng/mL and the concentration at 4 h [2] was 4.19 ng/mL. It also gave a concentration at 12 h [2] of 0.56 ng/mL, a concentration at 16 h [2] of 0.34 ng/mL and a concentration at 24 h [2] of 0.23 ng/mL. The concentration at 72 h [2] was 0 ng/mL, the concentration at 0 h [3] was 0 ng/mL and the concentration at 0.67 h [3] was 39 ng/mL. It also gave a concentration at 1 h [3] of 40.7 ng/mL, a concentration at 1.5 h [3] of 32.6 ng/mL and a concentration at 2 h [3] of 26.1 ng/mL. It also gave a concentration at 3 h [3] of 15.8 ng/mL, a concentration at 4 h [3] of 10.1 ng/mL and a concentration at 6 h [3] of 6.33 ng/mL. The concentration at 8 h [3] was 3.98 ng/mL, the concentration at 12 h [3] was 1.36 ng/mL and the concentration at 16 h [3] was 0.75 ng/mL. The concentration at 24 h [3] was 0.41 ng/mL, the concentration at 32 h [3] was 0.43 ng/mL and the concentration at 48 h [3] was 0.24 ng/mL. It also gave a concentration at 72 h [3] of 0.16 ng/mL, a concentration at 0 h [4] of 0 ng/mL and a concentration at 0.67 h [4] of 27.9 ng/mL. It also gave a concentration at 1 h [4] of 36.8 ng/mL, a concentration at 1.5 h [4] of 27.7 ng/mL and a concentration at 2 h [4] of 18 ng/mL. The concentration at 3 h [4] was 7.84 ng/mL, the concentration at 4 h [4] was 4.29 ng/mL and the concentration at 6 h [4] was 3 ng/mL. It also gave a concentration at 8 h [4] of 2.38 ng/mL, a concentration at 12 h [4] of 0.65 ng/mL and a concentration at 16 h [4] of 0.44 ng/mL. For the same compound, the concentration at 24 h [4] was 0.28 ng/mL, the concentration at 32 h [4] was 0.28 ng/mL and the concentration at 48 h [4] was 0.09 ng/mL. The concentration at 72 h [4] was 0 ng/mL, the AUC(0-inf) (dog, plasma, po) was 0.6 ng·h/mL and the Cmax (dog, plasma, po) was 19 to 71.3 ng/mL. It also gave a half-life (dog, plasma, po) of 18.4 h, an AUC (dog, plasma, po, 0.12 mg/kg, 0.12 mg/kg THC in combination with 0.24 mg/kg CBD) of 90 to 110 ng·h/mL and an AUC (dog, plasma, po, 0.24 mg/kg, 0.24 mg/kg THC in combination with 0.12 mg/kg CBD) of 145 to 170 ng·h/mL.
